ChEMBL document CHEMBL3774368, “1,2,4-Triazolyl octahydropyrrolo[2,3-b]pyrroles: A new series of potent and selective dopamine D3 receptor antagonists” (Bioorg Med Chem, 2016)

Biological target: Cytochrome P450 2C19 (Homo sapiens, UniProt P33261)
Assay: Inhibition of recombinant human CYP2C19 expressed in baculosomes preincubated for 10 mins followed by cofactor addition measured every minute for 10 mins using 3-butyryl-7-methoxycoumarin as substrate by CYPEX assay
Conditions: not given

Chain of Cytochrome P450 2C19 (P33261 whole entry): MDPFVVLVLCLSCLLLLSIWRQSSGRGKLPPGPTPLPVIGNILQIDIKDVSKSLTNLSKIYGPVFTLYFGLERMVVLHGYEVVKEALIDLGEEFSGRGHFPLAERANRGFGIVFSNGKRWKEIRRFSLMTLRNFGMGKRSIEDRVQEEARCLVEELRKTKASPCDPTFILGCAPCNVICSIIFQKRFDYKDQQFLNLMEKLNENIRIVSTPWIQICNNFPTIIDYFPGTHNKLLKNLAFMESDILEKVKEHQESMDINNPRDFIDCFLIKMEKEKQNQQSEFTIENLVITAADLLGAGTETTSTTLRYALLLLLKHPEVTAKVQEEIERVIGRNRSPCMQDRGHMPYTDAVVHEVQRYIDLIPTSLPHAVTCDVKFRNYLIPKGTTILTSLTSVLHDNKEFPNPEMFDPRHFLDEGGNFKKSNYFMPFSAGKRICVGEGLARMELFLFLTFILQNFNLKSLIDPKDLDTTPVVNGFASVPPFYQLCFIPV

Row | Compound | IC50 [nM]
1 | Cn1c(SCCCN2CC3CCN(c4ccc(C(F)(F)F)cc4)C3C2)nnc1-c1cnccn1 (stereo in doubt; 17b) | > 2000
2 | Cn1c(SCCCN2CC3CCN(c4ccc(F)cc4F)C3C2)nnc1-c1cnccn1 (stereo in doubt; 36b) | > 1000
3 | CC(C)Oc1ccccc1N1CCC2CN(CCCSc3nnc(-c4cnccn4)n3C)CC21 (stereo in doubt; 35b) | > 1000

Biological target: D(2) dopamine receptor (Homo sapiens, UniProt P14416)
Sequence (P14416 whole entry): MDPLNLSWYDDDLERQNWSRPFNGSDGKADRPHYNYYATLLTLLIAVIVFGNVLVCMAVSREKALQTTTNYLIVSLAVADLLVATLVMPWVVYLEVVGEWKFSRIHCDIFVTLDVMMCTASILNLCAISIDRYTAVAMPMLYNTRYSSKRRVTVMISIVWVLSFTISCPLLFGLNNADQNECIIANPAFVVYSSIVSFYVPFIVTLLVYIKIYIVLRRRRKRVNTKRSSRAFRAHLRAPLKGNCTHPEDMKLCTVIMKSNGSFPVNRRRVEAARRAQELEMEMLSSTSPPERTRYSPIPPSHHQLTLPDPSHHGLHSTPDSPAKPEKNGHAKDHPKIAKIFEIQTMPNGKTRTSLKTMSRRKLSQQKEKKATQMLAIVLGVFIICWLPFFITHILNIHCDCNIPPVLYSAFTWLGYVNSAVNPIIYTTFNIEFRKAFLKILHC
Assay: Displacement of [3H]-spiperone from human dopamine D2 receptor expressed in CHO-K1 cell membranes after 120 mins by liquid scintillation counter method
Conditions: not given

Row | Compound | Ki [nM]
4 | Cn1c(SCCCN2CC3CCN(c4ccc(C(F)(F)F)cc4)C3C2)nnc1-c1cnccn1 (stereo in doubt; 17b) | 158
5 | Cn1c(SCCCN2CC3CCN(c4ccc(F)cc4F)C3C2)nnc1-c1cnccn1 (stereo in doubt; 36b) | 316
6 | CC(C)Oc1ccccc1N1CCC2CN(CCCSc3nnc(-c4cnccn4)n3C)CC21 (stereo in doubt; 35b) | 251
7 | Cc1ncoc1-c1nnc(SCCCN2CC3CCN(c4cccc(C#N)c4)C3C2)n1C (stereo in doubt; 12a) | 31.6
8 | Cc1ncoc1-c1nnc(SCCCN2CC3CCN(c4cccc(F)c4)C3C2)n1C (racemic) | 158

Test system: not listed separately
Assay: Fraction unbound in Sprague-Dawley rat brain
Conditions: not given

Row | Compound | fraction unbound
9 | CC(C)Oc1ccccc1N1CCC2CN(CCCSc3nnc(-c4cnccn4)n3C)CC21 (stereo in doubt; 35b) | 0.13

Test system: not listed separately
Assay: in vitro
Conditions: human, liver microsomes, CLH

Row | Compound | microsomal CLint at 0.5 µM [µL/min/mg]
10 | Cn1c(SCCCN2CC3CCN(c4ccc(C(F)(F)F)cc4)C3C2)nnc1-c1cnccn1 (stereo in doubt; 17b) | > 700
11 | Cn1c(SCCCN2CC3CCN(c4ccc(F)cc4F)C3C2)nnc1-c1cnccn1 (stereo in doubt; 36b) | > 650
12 | CC(C)Oc1ccccc1N1CCC2CN(CCCSc3nnc(-c4cnccn4)n3C)CC21 (stereo in doubt; 35b) | > 750

Biological target: T1, Cytochrome P450 1A2 (Homo sapiens, UniProt P05177)
T1 sequence (P05177 whole entry): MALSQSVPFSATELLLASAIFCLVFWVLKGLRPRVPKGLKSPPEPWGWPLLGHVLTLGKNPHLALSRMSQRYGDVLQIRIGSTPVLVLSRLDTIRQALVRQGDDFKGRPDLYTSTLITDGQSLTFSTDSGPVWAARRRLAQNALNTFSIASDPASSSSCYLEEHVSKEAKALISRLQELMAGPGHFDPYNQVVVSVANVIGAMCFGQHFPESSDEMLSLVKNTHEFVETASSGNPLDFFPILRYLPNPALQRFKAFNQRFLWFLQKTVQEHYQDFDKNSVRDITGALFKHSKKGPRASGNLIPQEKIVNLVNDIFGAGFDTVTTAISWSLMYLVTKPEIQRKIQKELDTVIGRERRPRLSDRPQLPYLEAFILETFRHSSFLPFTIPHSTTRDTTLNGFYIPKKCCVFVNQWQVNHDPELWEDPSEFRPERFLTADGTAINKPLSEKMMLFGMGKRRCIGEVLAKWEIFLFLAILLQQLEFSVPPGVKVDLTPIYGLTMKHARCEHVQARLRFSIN
Assay: Inhibition of recombinant human CYP1A2 expressed in baculosomes preincubated for 10 mins followed by cofactor addition measured every minute for 10 mins using ethoxyresorufin as substrate by CYPEX assay
Conditions: not given

Row | Compound | IC50 [nM]
13 | Cn1c(SCCCN2CC3CCN(c4ccc(C(F)(F)F)cc4)C3C2)nnc1-c1cnccn1 (stereo in doubt; 17b) | > 2000
14 | Cn1c(SCCCN2CC3CCN(c4ccc(F)cc4F)C3C2)nnc1-c1cnccn1 (stereo in doubt; 36b) | > 1000
15 | CC(C)Oc1ccccc1N1CCC2CN(CCCSc3nnc(-c4cnccn4)n3C)CC21 (stereo in doubt; 35b) | > 1000

Biological target: T2, Cytochrome P450 3A4 (Homo sapiens, UniProt P08684)
T2 sequence (P08684 whole entry): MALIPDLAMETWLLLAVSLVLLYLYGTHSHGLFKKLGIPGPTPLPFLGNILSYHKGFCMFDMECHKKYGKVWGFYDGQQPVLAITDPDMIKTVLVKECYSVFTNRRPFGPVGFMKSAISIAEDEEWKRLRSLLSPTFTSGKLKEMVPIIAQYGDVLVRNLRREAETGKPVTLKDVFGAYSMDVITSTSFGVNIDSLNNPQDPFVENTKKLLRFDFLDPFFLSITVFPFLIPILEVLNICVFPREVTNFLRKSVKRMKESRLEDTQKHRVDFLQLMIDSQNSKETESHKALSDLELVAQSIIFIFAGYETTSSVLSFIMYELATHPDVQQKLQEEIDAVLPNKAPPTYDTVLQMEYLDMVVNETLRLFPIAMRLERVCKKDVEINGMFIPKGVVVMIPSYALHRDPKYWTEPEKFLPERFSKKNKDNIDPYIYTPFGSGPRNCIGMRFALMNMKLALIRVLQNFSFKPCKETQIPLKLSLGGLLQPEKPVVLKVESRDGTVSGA
Assay: Inhibition of recombinant human CYP3A4 expressed in baculosomes preincubated for 10 mins followed by cofactor addition measured every minute for 10 mins using 7-benzyloxyquinoline as substrate by CYPEX assay
Conditions: not given

Row | Compound | IC50 [nM]
16 | Cn1c(SCCCN2CC3CCN(c4ccc(C(F)(F)F)cc4)C3C2)nnc1-c1cnccn1 (stereo in doubt; 17b) | > 2000
17 | Cn1c(SCCCN2CC3CCN(c4ccc(F)cc4F)C3C2)nnc1-c1cnccn1 (stereo in doubt; 36b) | > 1000
18 | CC(C)Oc1ccccc1N1CCC2CN(CCCSc3nnc(-c4cnccn4)n3C)CC21 (stereo in doubt; 35b) | > 1000

Biological target: T2, Cytochrome P450 3A4
Assay: Inhibition of recombinant human CYP3A4 expressed in baculosomes preincubated for 10 mins followed by cofactor addition measured every minute for 10 mins using diethoxyflourescein as substrate by CYPEX assay
Conditions: not given

Row | Compound | IC50 [nM]
19 | Cn1c(SCCCN2CC3CCN(c4ccc(C(F)(F)F)cc4)C3C2)nnc1-c1cnccn1 (stereo in doubt; 17b) | > 2000
20 | Cn1c(SCCCN2CC3CCN(c4ccc(F)cc4F)C3C2)nnc1-c1cnccn1 (stereo in doubt; 36b) | > 1000
21 | CC(C)Oc1ccccc1N1CCC2CN(CCCSc3nnc(-c4cnccn4)n3C)CC21 (stereo in doubt; 35b) | > 1000

Test system: not listed separately
Assay: Fraction unbound in Sprague-Dawley rat blood
Conditions: not given

Row | Compound | fraction unbound
22 | CC(C)Oc1ccccc1N1CCC2CN(CCCSc3nnc(-c4cnccn4)n3C)CC21 (stereo in doubt; 35b) | 0.024

Organism: Homo sapiens
Assay: Selectivity ratio of IC50 for human ERG to Ki for human dopamine D3 receptor
Conditions: not given

Row | Compound | Selectivity ratio
23 | Cc1ncoc1-c1nnc(SCCCN2CC3CCN(c4cccc(F)c4)C3C2)n1C (racemic) | 100

Biological target: D(3) dopamine receptor (Homo sapiens, UniProt P35462)
Sequence (P35462 whole entry): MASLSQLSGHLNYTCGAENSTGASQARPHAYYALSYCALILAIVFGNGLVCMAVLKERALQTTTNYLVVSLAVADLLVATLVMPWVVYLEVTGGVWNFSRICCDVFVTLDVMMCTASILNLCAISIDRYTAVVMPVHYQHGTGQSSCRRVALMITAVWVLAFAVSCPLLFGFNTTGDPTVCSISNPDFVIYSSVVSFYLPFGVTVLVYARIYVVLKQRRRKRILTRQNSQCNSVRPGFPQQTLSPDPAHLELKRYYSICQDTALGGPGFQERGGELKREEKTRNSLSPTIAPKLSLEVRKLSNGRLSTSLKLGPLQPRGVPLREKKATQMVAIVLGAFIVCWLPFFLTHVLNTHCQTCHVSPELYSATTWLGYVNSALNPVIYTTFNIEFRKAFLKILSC
Assay: Displacement of [3H]-spiperone from human dopamine D3 receptor expressed in CHO-K1 cell membranes after 90 mins by liquid scintillation counter method
Conditions: not given

Row | Compound | Ki [nM]
24 | Cn1c(SCCCN2CC3CCN(c4ccc(F)cc4F)C3C2)nnc1-c1cnccn1 (stereo in doubt; 36b) | 3.98
25 | CC(C)Oc1ccccc1N1CCC2CN(CCCSc3nnc(-c4cnccn4)n3C)CC21 (stereo in doubt; 35b) | 7.94
26 | Cc1ncoc1-c1nnc(SCCCN2CC3CCN(c4cccc(C#N)c4)C3C2)n1C (stereo in doubt; 12a) | 0.631
27 | Cc1ncoc1-c1nnc(SCCCN2CC3CCN(c4cccc(F)c4)C3C2)n1C (racemic) | 3.16

Test system: not listed separately
Assay: Solubility of compound
Assay type: physicochemical
Conditions: not given

Row | Compound | solubility [µg/mL]
28 | Cc1ncoc1-c1nnc(SCCCN2CC3CCN(c4cccc(C#N)c4)C3C2)n1C (stereo in doubt; 12a) | > 2200

Biological target: Voltage-gated inwardly rectifying potassium channel KCNH2 (Homo sapiens, UniProt Q12809)
Sequence (Q12809 whole entry): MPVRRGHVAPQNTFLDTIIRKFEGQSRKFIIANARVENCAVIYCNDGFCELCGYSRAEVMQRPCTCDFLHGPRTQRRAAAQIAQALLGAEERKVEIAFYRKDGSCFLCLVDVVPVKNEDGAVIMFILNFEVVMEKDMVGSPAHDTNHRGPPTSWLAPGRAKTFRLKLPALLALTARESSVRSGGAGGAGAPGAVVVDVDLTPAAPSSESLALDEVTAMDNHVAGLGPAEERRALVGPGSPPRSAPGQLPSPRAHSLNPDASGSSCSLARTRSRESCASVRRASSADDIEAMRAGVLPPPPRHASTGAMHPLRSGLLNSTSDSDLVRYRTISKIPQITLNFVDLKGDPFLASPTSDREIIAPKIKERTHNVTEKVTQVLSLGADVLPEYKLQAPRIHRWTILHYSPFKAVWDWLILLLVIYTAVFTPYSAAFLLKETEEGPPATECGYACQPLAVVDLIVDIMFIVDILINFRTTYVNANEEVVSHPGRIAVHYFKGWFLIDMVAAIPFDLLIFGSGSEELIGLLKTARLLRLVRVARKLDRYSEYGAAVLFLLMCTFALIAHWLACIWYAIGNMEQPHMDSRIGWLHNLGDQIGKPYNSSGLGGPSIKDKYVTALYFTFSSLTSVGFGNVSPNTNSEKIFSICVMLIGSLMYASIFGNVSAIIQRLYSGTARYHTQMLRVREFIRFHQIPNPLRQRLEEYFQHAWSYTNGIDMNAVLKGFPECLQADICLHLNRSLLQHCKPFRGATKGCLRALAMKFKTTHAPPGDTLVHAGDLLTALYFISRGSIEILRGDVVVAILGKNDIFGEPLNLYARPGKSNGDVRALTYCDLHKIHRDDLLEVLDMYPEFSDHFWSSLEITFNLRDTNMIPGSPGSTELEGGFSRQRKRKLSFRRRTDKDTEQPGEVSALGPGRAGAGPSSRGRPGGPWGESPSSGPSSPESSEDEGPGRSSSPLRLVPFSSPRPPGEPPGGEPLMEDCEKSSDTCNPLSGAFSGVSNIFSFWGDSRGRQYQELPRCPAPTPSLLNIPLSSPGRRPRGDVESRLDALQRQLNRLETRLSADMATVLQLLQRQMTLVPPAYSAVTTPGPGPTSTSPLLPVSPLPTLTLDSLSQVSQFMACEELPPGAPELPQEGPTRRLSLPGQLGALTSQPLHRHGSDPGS
Assay: Inhibition of human ERG tail current expressed in HEK293 cells after 5 mins by patch clamp assay
Conditions: not given

Row | Compound | IC50 [nM]
29 | Cc1ncoc1-c1nnc(SCCCN2CC3CCN(c4cccc(C#N)c4)C3C2)n1C (stereo in doubt; 12a) | < 100
30 | Cc1ncoc1-c1nnc(SCCCN2CC3CCN(c4cccc(F)c4)C3C2)n1C (racemic) | 251

Test system: not listed separately
Assay: in vitro
Conditions: rat, liver microsomes, CLH

Row | Compound | microsomal CLint at 0.5 µM [µL/min/mg]
31 | Cn1c(SCCCN2CC3CCN(c4ccc(C(F)(F)F)cc4)C3C2)nnc1-c1cnccn1 (stereo in doubt; 17b) | > 700
32 | Cn1c(SCCCN2CC3CCN(c4ccc(F)cc4F)C3C2)nnc1-c1cnccn1 (stereo in doubt; 36b) | > 650
33 | CC(C)Oc1ccccc1N1CCC2CN(CCCSc3nnc(-c4cnccn4)n3C)CC21 (stereo in doubt; 35b) | > 750

Biological target: Cytochrome P450 2D6 (Homo sapiens, UniProt P10635)
Sequence (P10635 whole entry): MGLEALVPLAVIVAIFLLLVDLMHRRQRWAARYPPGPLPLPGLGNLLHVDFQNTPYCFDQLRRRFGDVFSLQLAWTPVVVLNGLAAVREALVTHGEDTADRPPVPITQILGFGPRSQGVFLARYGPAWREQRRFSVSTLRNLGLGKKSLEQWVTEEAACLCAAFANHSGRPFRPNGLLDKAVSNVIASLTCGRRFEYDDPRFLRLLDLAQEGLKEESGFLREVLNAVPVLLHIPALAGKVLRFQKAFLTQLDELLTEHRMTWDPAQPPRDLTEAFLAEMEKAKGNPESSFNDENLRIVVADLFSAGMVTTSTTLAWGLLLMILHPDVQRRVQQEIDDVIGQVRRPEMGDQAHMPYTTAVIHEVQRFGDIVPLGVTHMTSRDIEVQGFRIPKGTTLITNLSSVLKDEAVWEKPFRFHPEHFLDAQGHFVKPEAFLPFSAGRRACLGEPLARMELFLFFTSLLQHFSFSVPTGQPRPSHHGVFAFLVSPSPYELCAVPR
Assay: Inhibition of recombinant human CYP2D6 expressed in baculosomes preincubated for 10 mins followed by cofactor addition measured every minute for 10 mins using 4-methylaminomethyl-7-methoxycoumarin as substrate by CYPEX assay
Conditions: not given

Row | Compound | IC50 [nM]
34 | Cn1c(SCCCN2CC3CCN(c4ccc(C(F)(F)F)cc4)C3C2)nnc1-c1cnccn1 (stereo in doubt; 17b) | > 2000
35 | Cn1c(SCCCN2CC3CCN(c4ccc(F)cc4F)C3C2)nnc1-c1cnccn1 (stereo in doubt; 36b) | > 1000
36 | CC(C)Oc1ccccc1N1CCC2CN(CCCSc3nnc(-c4cnccn4)n3C)CC21 (stereo in doubt; 35b) | > 1000

Biological target: Cytochrome P450 2C9 (Homo sapiens, UniProt P11712)
Sequence (P11712 whole entry): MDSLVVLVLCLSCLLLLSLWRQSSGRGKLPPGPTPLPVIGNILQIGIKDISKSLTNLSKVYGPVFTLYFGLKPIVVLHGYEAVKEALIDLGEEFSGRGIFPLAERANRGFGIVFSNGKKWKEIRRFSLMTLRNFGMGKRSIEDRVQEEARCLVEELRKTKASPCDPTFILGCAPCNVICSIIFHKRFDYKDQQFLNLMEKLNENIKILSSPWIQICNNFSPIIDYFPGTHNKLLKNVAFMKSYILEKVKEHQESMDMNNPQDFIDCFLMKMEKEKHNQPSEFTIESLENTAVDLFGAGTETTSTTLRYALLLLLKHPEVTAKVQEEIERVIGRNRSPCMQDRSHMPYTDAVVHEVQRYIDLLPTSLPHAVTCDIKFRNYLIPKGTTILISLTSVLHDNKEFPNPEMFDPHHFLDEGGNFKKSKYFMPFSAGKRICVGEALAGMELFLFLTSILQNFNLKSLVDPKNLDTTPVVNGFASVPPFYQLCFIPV
Assay: Inhibition of recombinant human CYP2C9 expressed in baculosomes preincubated for 10 mins followed by cofactor addition measured every minute for 10 mins using 7-methoxy-4-trifluoromethylcoumarin-3-acetic acid as substrate by CYPEX assay
Conditions: not given

Row | Compound | IC50 [nM]
37 | Cn1c(SCCCN2CC3CCN(c4ccc(C(F)(F)F)cc4)C3C2)nnc1-c1cnccn1 (stereo in doubt; 17b) | > 2000
38 | Cn1c(SCCCN2CC3CCN(c4ccc(F)cc4F)C3C2)nnc1-c1cnccn1 (stereo in doubt; 36b) | > 1000
39 | CC(C)Oc1ccccc1N1CCC2CN(CCCSc3nnc(-c4cnccn4)n3C)CC21 (stereo in doubt; 35b) | > 1000
